Among the data in patent publication US20260308186A1, “STAT DEGRADERS AND USES THEREOF” (Recludix Pharma, Inc., priority 2023, published 2026) are IC50 values, retold here.

In experiment [1] the target is T1, STAT6 (Homo sapiens, UniProt P42226).
T1 construct: Recombinant STAT6 protein (STAT6(W123-T658))
T1 sequence (P42226 123-658): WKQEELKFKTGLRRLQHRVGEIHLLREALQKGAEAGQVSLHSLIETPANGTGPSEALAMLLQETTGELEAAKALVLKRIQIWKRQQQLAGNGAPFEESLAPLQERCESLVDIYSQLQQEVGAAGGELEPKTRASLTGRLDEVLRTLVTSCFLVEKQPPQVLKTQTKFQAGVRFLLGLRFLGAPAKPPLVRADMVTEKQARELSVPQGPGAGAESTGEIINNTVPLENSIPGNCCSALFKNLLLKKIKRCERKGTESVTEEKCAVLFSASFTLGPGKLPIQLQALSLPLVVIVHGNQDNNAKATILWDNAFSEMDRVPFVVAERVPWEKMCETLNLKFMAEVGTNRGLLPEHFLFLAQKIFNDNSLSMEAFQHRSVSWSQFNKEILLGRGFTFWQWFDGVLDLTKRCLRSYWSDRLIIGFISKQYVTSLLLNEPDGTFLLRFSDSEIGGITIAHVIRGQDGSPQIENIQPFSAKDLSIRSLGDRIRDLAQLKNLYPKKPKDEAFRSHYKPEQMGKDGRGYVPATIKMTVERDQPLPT
Nature of the experiment: STAT6 Fluorescence Polarization (FP) Assay. It is filed as binding. The note with it: recombinant STAT6(W123-T658) 250 nM; probe 5-FAM-Ap[…]-NH2 2 nM; 45 min, room temperature; read-out: STAT6 FP IC50. Here is the method:
STAT6 Fluorescence Polarization (FP) Assay
An FP assay was developed to determine IC50 values for test substances. Recombinant STAT6 protein (STAT6(W123-T658)) at 250 nM was combined with a fluorescently labeled, phosphotyrosine peptide probe (5-FAM-Ap[…]-NH2) at 2 nM in FP buffer (10 mM HEPES pH 7.4, 50 mM NaCl, 1 mM EDTA, 0.05% Tween 20, 2 mM DTT), 50 μL of STAT6-probe mixture was added to serial diluted compounds in black, 96-well plates (Greiner BioOne 655076) to a final concentration of 1% DMSO. Reaction components were mixed, and FP was measured after 45-minute incubation at room temperature using a Tecan Spark multimode plate reader. FP signal (mP) was plotted against the log concentration of the test substances and IC50 values were calculated by nonlinear regression analysis using GraphPad Prism software. For STAT6 FP assay. A=≤300 nM; B=>300-3000 nM; C=>3-30 μM; and D=>30 μM.
In general terms: In fluorescence polarisation assays a small probe gives low polarisation when free and higher when bound to something large.

Experiment [2] has as its target T2, pSTAT6 (Homo sapiens, UniProt P42226).
T2 construct: pY641-STAT6 MSD read-out
T2 sequence (P42226 1-847): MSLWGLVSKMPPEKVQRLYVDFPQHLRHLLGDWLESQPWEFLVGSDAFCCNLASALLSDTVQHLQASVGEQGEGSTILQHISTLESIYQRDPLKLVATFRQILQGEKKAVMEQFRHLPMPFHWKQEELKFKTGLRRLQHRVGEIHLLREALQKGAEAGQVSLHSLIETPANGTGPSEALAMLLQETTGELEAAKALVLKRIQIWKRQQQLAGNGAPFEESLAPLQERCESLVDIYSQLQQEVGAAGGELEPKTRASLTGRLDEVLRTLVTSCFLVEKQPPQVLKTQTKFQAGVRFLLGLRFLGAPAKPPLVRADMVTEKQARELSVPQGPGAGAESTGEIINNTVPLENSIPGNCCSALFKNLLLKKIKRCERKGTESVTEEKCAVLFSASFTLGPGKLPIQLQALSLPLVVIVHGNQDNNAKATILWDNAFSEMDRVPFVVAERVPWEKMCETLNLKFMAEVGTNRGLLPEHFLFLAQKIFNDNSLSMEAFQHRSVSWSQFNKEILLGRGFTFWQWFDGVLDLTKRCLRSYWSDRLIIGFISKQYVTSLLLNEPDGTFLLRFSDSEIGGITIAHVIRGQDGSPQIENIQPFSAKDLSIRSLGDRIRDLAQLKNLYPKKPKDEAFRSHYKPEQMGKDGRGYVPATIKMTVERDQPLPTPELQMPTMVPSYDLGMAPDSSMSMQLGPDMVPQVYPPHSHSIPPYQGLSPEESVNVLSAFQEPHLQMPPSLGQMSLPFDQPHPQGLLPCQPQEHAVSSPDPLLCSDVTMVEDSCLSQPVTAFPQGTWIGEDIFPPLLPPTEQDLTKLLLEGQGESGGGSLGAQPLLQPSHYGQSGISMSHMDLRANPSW
Nature of the experiment: MSD-pSTAT-PBMC Assay, pSTAT6 (IL-4 stimulated PBMC). To be noted: compound 3 hrs, then 1 ng/mL IL-4 for 10 min, pY641-STAT6, read-out: pSTAT6 IC50. It is filed as cell-based. From the text: Cryopreserved Peripheral Blood Mononuclear Cells (PBMC) are from AllCells. Recombinant Human IL-4 and IL-6 are from Peprotech. Mouse monoclonal anti-STAT3 antibody, rabbit monoclonal anti-pY705-STAT3 antibody, rabbit monoclonal Anti-pY641-STAT6 antibody, and lysis buffer are from Cell Signaling Technology (CST). Mouse monoclonal anti-STAT6 antibody is from BioLegend. Assay plates, blocker, and anti-rabbit secondary antibody are from Meso Scale Discovery (MSD).
Cryopreserved PBMCs were thawed out and allowed to recover overnight in IMDM+10% heat-inactivated FBS prior to plating 50,000 (STAT3) or 25,000 (STAT6) cells per well in 96-well U-bottom tissue culture plates. Cells were treated with compound for 3 hrs. then stimulated with 10 ng/mL IL-6 (STAT3) or 1 ng/mL IL-4 (STAT6) for 10 min. Cells were then spun down and washed with ice-cold PBS prior to lysing the cell pellet with 1× lysis buffer (CST) with 1×HALT protease and phosphatase inhibitor cocktail (Thermo). Lysates were transferred to and incubated overnight at 4° C. with shaking in QuickPlex 96-well high bind assay plates (MSD) pre-coated overnight with 30 μL per well of 0.6 μg/mL mouse monoclonal anti-STAT3 antibody (STAT3) or 2 μg/mL mouse monoclonal anti-STAT6 antibody (STAT6) in 1×PBS, and pre-blocked for 1 hour with 3% Blocker-A (MSD). Captured protein in the assay plates were then washed and probed with 25 μL per well of 0.25 μg/ml rabbit monoclonal anti-pY705-STAT3 antibody (STAT3) or 0.18 μg/ml rabbit monoclonal Anti-pY641-STAT6 antibody (STAT6) in 1% Blocker-A for 1 hour at room temperature with shaking, then washed and probed with 25 ul per well of 1 ug/ml Sulfo-TAG Labeled Goat Anti-Rabbit Antibody (MSD) in 1% Blocker-A for 1 hour at room temperature with shaking. Assay plates were then washed and 150 μL of 1× Read Buffer-T (MSD) was added to each well prior to reading on an SQ120 MSD Plate Reader. Assay signal from each sample was subtracted by the signal from unstimulated control wells and normalized to DMSO control wells. IC50 values were calculated using Graph Pad Prism Dose-Response Nonlinear Regression with variable slope. For both pSTAT3 and pSTAT6 A=≤100 nM; B=>100-1000 nM; C=>1000-3000 nM; and D=>3 μM.

Experiment [3] deals with T3, STAT3 (Homo sapiens, UniProt P40763).
T3 construct: Recombinant STAT3 protein (STAT3(G127-1722))
T3 sequence (P40763 127-722 limits assumed): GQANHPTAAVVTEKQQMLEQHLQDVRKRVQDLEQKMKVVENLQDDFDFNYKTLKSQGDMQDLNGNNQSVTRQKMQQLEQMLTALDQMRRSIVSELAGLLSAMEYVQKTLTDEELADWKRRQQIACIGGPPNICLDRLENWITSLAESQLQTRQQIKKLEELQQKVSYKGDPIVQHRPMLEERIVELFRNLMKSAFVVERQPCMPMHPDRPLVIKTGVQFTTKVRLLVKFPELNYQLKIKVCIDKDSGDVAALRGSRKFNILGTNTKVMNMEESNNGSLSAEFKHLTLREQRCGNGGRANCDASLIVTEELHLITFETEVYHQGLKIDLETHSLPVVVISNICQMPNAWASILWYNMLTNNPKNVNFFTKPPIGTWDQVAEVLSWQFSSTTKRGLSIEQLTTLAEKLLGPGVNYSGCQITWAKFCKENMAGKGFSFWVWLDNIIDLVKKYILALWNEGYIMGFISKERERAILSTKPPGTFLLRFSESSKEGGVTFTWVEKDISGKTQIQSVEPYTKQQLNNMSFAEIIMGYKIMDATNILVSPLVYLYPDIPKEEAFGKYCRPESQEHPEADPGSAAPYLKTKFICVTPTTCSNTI
Nature of the experiment: STAT3 Fluorescence Polarization (FP) Assay. It is filed as binding. The note with it: recombinant STAT3 25 nM; probe 5-FAM-GpYLPQTV-NH2 2 nM; 45 min, room temperature; read-out: STAT3 FP IC50. The method, then:
STAT3 Fluorescence Polarization (FP) Assay
An FP assay was developed to determine IC50 values for test substances. Recombinant STAT3 protein (STAT3(G127-1722)) at 25 nM was combined with a fluorescently labeled, phosphotyrosine peptide probe (5-FAM-GpYLPQTV-NH2) at 2 nM in FP buffer (10 mM HEPES pH 7.4, 50 mM NaCl, 1 mM EDTA, 0.05% Tween 20.2 mM DTT). 50 μL of STAT3-probe mixture was added to serial diluted compounds in black, 96-well plates (Greiner BioOne 655076) to a final concentration of 1% DMSO. Reaction components were mixed, and FP was measured after 45-minute incubation at room temperature using a Tecan Spark multimode plate reader. FP signal (mP) was plotted against the log concentration of the test substances and IC50 values were calculated by nonlinear regression analysis using GraphPad Prism software. For STAT3 FP assay. A=≤100 nM; B=>100-1000 nM; C=>1-10 μM; and D=>10 μM.

A value given as a limit tells only on which side of the number the result lay.

A word on the IC50: it is the concentration that inhibits the measured activity by half. Regarding `Cc1ccc2onc(C(=O)N3CC[C@H]4CC[C@@H](C(=O)N(C)CCC#Cc5cccc6c5CN(C5CCC(=O)NC5=O)C6=O)N4C(=O)[C@@H](NC(=O)c4ccc5ccc(C(F)(F)P(=O)(O)O)cc5c4)C3)c2c1` (stereo partly drawn) [Compound 28, ((7-(((5S,8S,10aR)-8-((4-(2-(2,6-dioxopiperidin-3-yl)-1-oxoisoindolin-4-yl)but-3-yn-1-yl)(methyl)carbamoyl)-3-(5-methylbenzo[d]isoxazole-3-carbonyl)-6-oxodecahydropyrrolo[1,2-a][1,5]diazocin-5-yl)carbamoyl)naphthalen-2-yl)difluoromethyl)phosphonic acid], the IC50 was below 0.3 µM in experiment [1], above 3 µM in experiment [2] and 1 to 10 µM in experiment [3].
In the case of `Cc1ccc2onc(C(=O)N3CC[C@H]4CC[C@@H](C(=O)N(C)CCCC(=O)N[C@H](C(=O)N5C[C@H](O)C[C@H]5C(=O)N[C@@H](C)c5ccc(-c6scnc6C)cc5)C(C)(C)C)N4C(=O)[C@@H](NC(=O)c4ccc5ccc(C(F)(F)P(=O)(O)O)cc5c4)C3)c2c1` [Compound 29, (difluoro(7-(((5S,8S,10aR)-8-((4-(((S)-1-((2S,4R)-4-hydroxy-2-(((S)-1-(4-(4-methylthiazol-5-yl)phenyl)ethyl)carbamoyl)pyrrolidin-1-yl)-3,3-dimethyl-1-oxobutan-2-yl)amino)-4-oxobutyl)(methyl)carbamoyl)-3-(5-methylbenzo[d]isoxazole-3-carbonyl)-6-oxodecahydropyrrolo[1,2-a][1,5]diazocin-5-yl)carbamoyl)naphthalen-2-yl)methyl)phosphonic acid], the IC50 in experiment [1] is below 0.3 µM; in experiment [2] it was above 3 µM; in experiment [3] it was 1 to 10 µM.
On the same counts, the results for `Cc1ccc2onc(C(=O)N3CC[C@H]4CC[C@@H](C(=O)N(C)CCCCOc5ccc(C6CCC(=O)NC6=O)cc5)N4C(=O)[C@@H](NC(=O)c4ccc5ccc(C(F)(F)P(=O)(O)O)cc5c4)C3)c2c1` (stereo partly drawn) [Compound 30, ((7-(((5S,8S,10aR)-8-((4-(4-(2,6-dioxopiperidin-3-yl)phenoxy)butyl)(methyl)carbamoyl)-3-(5-methylbenzo[d]isoxazole-3-carbonyl)-6-oxodecahydropyrrolo[1,2-a][1,5]diazocin-5-yl)carbamoyl)naphthalen-2-yl)difluoromethyl)phosphonic acid] are below 0.3 µM, above 3 µM and 1 to 10 µM.
On to `Cc1ccc2onc(C(=O)N3CC[C@H]4CC[C@@H](C(=O)NCCOc5cc(C(C(=O)N6C[C@H](O)C[C@H]6C(=O)N[C@H](C)c6ccc(-c7scnc7C)cc6)C(C)C)on5)N4C(=O)[C@@H](NC(=O)c4ccc5ccc(C(F)(F)P(=O)(O)O)cc5c4)C3)c2c1` (stereo partly drawn) [Compound 32, (difluoro(7-(((5S,8S,10aR)-8-((2-((5-(1-((2S,4R)-4-hydroxy-2-(((R)-1-(4-(4-methylthiazol-5-yl)phenyl)ethyl)carbamoyl)pyrrolidin-1-yl)-3-methyl-1-oxobutan-2-yl)isoxazol-3-yl)oxy)ethyl)carbamoyl)-3-(5-methylbenzo[d]isoxazole-3-carbonyl)-6-oxodecahydropyrrolo[1,2-a][1,5]diazocin-5-yl)carbamoyl)naphthalen-2-yl)methyl)phosphonic acid], for which the values for the IC50 in experiment [1], in experiment [2] and in experiment [3] were 0.3 to 3 µM, above 3 µM and 1 to 10 µM, respectively.
For the compound `Cc1ccc2onc(C(=O)N3CC[C@H]4CC[C@@H](C(=O)N5CCN(c6cc(C(C(=O)N7C[C@H](O)C[C@H]7C(=O)N[C@H](C)c7ccc(-c8scnc8C)cc7)C(C)C)on6)CC5)N4C(=O)[C@@H](NC(=O)c4ccc5ccc(C(F)(F)P(=O)(O)O)cc5c4)C3)c2c1` (stereo partly drawn) [Compound 33, (difluoro(7-(((5S,8S,10aR)-8-(4-(5-(1-((2S,4R)-4-hydroxy-2-(((R)-1-(4-(4-methylthiazol-5-yl)phenyl)ethyl)carbamoyl)pyrrolidin-1-yl)-3-methyl-1-oxobutan-2-yl)isoxazol-3-yl)piperazine-1-carbonyl)-3-(5-methylbenzo[d]isoxazole-3-carbonyl)-6-oxodecahydropyrrolo[1,2-a][1,5]diazocin-5-yl)carbamoyl)naphthalen-2-yl)methyl)phosphonic acid], the IC50 in experiment [1] is below 0.3 µM; in experiment [2] it was above 3 µM; in experiment [3] it was 1 to 10 µM.
